Assays:
[1] = tested on: ACAT; assay: Screening toward substances having ACAT activity inhibitory effects; type: biochemical; conditions: screening finding, no value given
[2] = tested on: SD rats; assay: Plasma cholesterol elevation inhibitory effects on rats loaded with high cholesterol diet, feed-mixed administration (Test 3); type: in vivo, rat; conditions: 0.005% of compound added to hyperlipemia inducing diet, ad libitum 3 days
Description: Using 5-week old male SD rats (120-150 g, 10 rats per group, individual feeding), plasma cholesterol elevation inhibitory effects of various compounds in the Examples on rats were studied. To a control group, a feed which had been prepared by adding 1.5% of cholesterol, 0.5% of cholic acid, 10% of coconut oil and 10% of sugar to "F-2 Diet" (product of FUNABASHI FARM CO., LTD.) was given ad libitum as a hyperlipemia inducing diet.
To each test-compound-administered group, on the other hand, a feed which had been prepared by adding 0.005% of the corresponding compound in the Examples to the hyperlipemia inducing diet of the above-described composition was given ad libitum. Further, a normal diet group to which a feed similar to the hyperlipemia inducing diet except for the exclusion of cholesterol was also tested similarly. As a testing method, after these feeds were given ad libitum for 3 days, bloods were drawn on the 4th day from the abdominal aortas of the individual rats under anesthesia with Nembutal. Subsequent to collection of plasma from each blood sample, the plasma cholesterol was quantitated by a "DETERMINER TC555 KIT" (product of Kyowa Medex Co., Ltd.) while the HDL cholesterol was quantitated by "DETERMINER HDL KIT" (product of Kyowa Medex Co., Ltd.). The liver cholesterol was measured by extracting it in accordance with the Folch's method and then measuring it with a "DETERMINER TC555 KIT". Statistical processing of the data so obtained was conducted by the Danett's test.

[3] = tested on: rat-derived ACAT; assay: Inhibitory effects on rat-derived ACAT (Test 1); type: biochemical; conditions: crude enzyme from microsome protein fractions of rat liver, (14C)-oleoyl-CoA substrate, 37°C
Description: To test effects on ACAT, a reaction was conducted in vitro to form (^14C)-cholesteryl oleate from endogeneous cholesterol in the presence of (^14C)-oleoyl-CoA as a substrate by using a crude enzyme prepared from microzome protein fractions of a rat liver.
The reaction mixture had the following composition: 20 µℓ of microsome protein (1.83 mg/mℓ), 20 µℓ of (^14C)-oleoyl-CoA (5 µCi/mℓ, BSA: 96 nmol/mℓ), 106 µℓ of 100 mM phosphate buffer (containing 5 mM of dithiothreitol, pH 7.4) and a sample dissolved in 4 µℓ of methanol or dimethyl sulfoxide; 150 µℓ in total.
The reaction was conducted at 37°C. After an elapse of a predetermined reaction time (18 minutes in general), a 2:1 mixture of chloroform and methanol (5.65 mℓ) was added to terminate the reaction. A 0.04 N aquous solution of hydrochloric acid (0.98 mℓ) and as a carrier, cholesteryl oleate were added, followed by extraction for 20 minutes on a shaking apparatus. The mixture was then allowed to stand overnight in a cold dark place. On the following day, the separated lower chloroform layer was extracted in its entirety and was dried under a nitrogen gas stream. The remaining upper layer was added with the lower layer (5.65 mℓ) of the Folch's partition solution, and was extracted again. After the mixture was allowed to stand overnight in a dark place, the lower layer was drawn in its entirety. This lower layer was combined with the lower chloroform layer fraction, which had already been dried to solid, and the mixture was then dried to solid.
The solid was then dissolved in chlorofrom (200 µℓ), and the solution was coated in its entirety on a G60 plate (aluminum sheet) for silica gel thin layer chromatography. After the solid was developedover 10 cm with a 10:190 mixture of diethyl ether and petroleum ether, autoradiography was conducted and the formation of (^14C)-colesteryl oleate was confirmed. This section was then cut off. The radioactivity of each sample was measured by subjecting it to liquid scintillation counting for 5 minutes in toluene or was measured for 30 minutes by a "Betascope" (manufactured by BETA-GEN INC. The results so obtained are shown in Table 1. Table 1

[4] = tested on: J774.1 strain, an established cell line of mouse macrophage; assay: Inhibitory effects on the accumulation of cholesterol esters in macrophage (Test 2); type: cell-based; conditions: J774.1 mouse macrophage, 12 hours incubation with cholesterol liposomes
Description: Inhibitory effects on the accumulation of cholesterol esters in macrophage were tested using J774.1 strain, an established cell line of mouse macrophage.
Metabolism of LDL in endothelial cells or smooth muscle cells causes downregulation of the LDL receptor by excess free cholesterol in the cells, but in a macrophage, uptake of modified lDL takes place via a scavenger receptor. As no regulation is applied to this pathway, cholesterol esters progressively accumulate without any limitation.
It was therefore studied whether or not corydaline would inhibit intracellular accumulation of cholesterol esters by having liposomes, which were formed of […] cholesterol and phosphatidylcholine, uptaken in macrophage cells and then causing them to act on acyl-CoA:cholesterol acyltransferase which existed on rough-surfaced endoplasmic reticula.
The macrophage cells were incubated for 2 days under 5% CO2 on an RPMI 1640 medium (product of NISSUI PHARMACEUTICAL CO., LTD.) which had been added with 10% fetal bovine serum, penicilin (50 U/mℓ) and streptomycin (50 µg/mℓ). Trypsinization was then conducted, and cells attached to the bottom of each well were peeled off and formulated into a cell suspension. The cells were washed with a fresh supply of the above-described culture medium, and the cell solution was then seeded at 2 x 10^6 cells/mℓ on a 24-well multiple well plate ("25820-24", product of CORNING INC.). After incubation at 37°C under 5% CO2 for 37 hours, the culture medium was replaced with a fresh supply of the above-described culture medium and, after a 0.3 M glucose solution (40 µℓ) with cholesterol [80 µg; containing 0.4 µCi of (^3H)-cholesterol] and phosphatidylcholine (160 µg) contained therein and a methanol solution (10 µℓ)with a test sample dissolved therein were added, incubation was conducted for 12 hours. These procedures were carried out aseptically.
After completion of the incubation, cells attached to each bottom were washed 5 times with a serum-free RPMI 1640 medium by a graduated pipet, and isopropanol (1 mℓ) was added to extract intracellular cholesterol and formed cholesterol esters. The extract was coated in its entirety on a silica gel thin layer chromatography ("Art 5553", product of MERCK & Co., INC.) and subsequent to development with a 80:20:2 mixture of hexane, ethyl ether and formic acid, autoradiography was performed.
A section, which contained ^3H-labelled cholesterol esters and cholesterol, was cut off. Its radioactivity was measured by a liquid scintillation counter and compared with a control, whereby a cholesterol ester accumulation inhibition rate was determined.

Row | IC50 [3] [nM] | Compound | Inhibitory rate (%) of plasma total cholesterol elevation in rat [2] [%] | also measured
1 |  | COc1cc(/C=C/C(=O)CCCCc2ccccc2)ccc1O [yakutinone B] |  | ACAT activity inhibitory effects [1]: exhibits ACAT activity inhibitory effects
2 |  | CCCCCCCCCCOc1c(OC)cc(/C=C/C(=O)NCCOc2ccccc2)cc1OC [Compound 52, N-(2-phenoxyethyl)-(2E)-3-(3,5-dimethoxy-4-decyloxyphenyl)-2-propenamide] | 23 | 
3 |  | CCCCCCCCCCOc1c(OC)cc(/C=C/C(=O)Nc2ccc(Oc3ccccc3)cc2)cc1OC [Compound 55, N-(4-phenoxyphenyl)-(2E)-3-(3,5-dimethoxy-4-decyloxyphenyl)-2-propenamide] | 34 | 
4 | 45 | CCCCCCCCCCCOc1c(OC)cc(/C=C/C(=O)NN2CCN(c3ccc(C)c(C)c3)CC2)cc1OC [Compound 9, N-[4-(3,4-dimethylphenyl)-1,4-diazacyclohexyl]-(2E)-3-(3,5-dimethoxy-4-undecyloxyphenyl)-2-propenamide] | 28 | 
5 | 71 | CCCCCCCCCCCCOc1c(OC)cc(/C=C/C(=O)NN2CCN(c3ccc(C)c(C)c3)CC2)cc1OC [Compound 10, N-[4-(3,4-dimethylphenyl)-1,4-diazacyclohexyl]-(2E)-3-(3,5-dimethoxy-4-dodecyloxyphenyl)-2-propenamide] | 33 | 
6 |  | COc1cc(/C=C/C(=O)N2CCN(c3ccc(C)cc3C)CC2)cc(OC)c1OCCOc1ccccc1 [Compound 24, N-[4-(2,4-dimethylphenyl)-1,4-diazacyclohexyl]-(2E)-3-[3,5-dimethoxy-4-(2-phenoxy)ethyloxy]-2-propenamide] | 20 | IC50 [4]: 720 nM
7 | 37 | COc1cc(/C=C/C(=O)Nc2ccc(C)cc2)cc(OC)c1OCc1ccccc1 [Compound 71, N-(4-methylphenyl)-(2E)-3-(3,5-dimethoxy-4-benzyloxyphenyl)-2-propenamide] |  | IC50 ([4]; Mus musculus, J774.1, 12 h): 120 nM

Row | Compound | IC50 [3] [nM] | Inhibitory rate (%) of plasma total cholesterol elevation in rat [2] [%] | also measured
8 | COc1cc(/C=C/C(=O)N2CCN(c3ccc(C)c(C)c3)CC2)cc(OC)c1OCc1ccccc1 [Compound 11, N-[4-(3,4-dimethylphenyl)-1,4-diazacyclohexyl]-(2E)-(3,5-dimethoxy-4-benzyloxyphenyl)-2-propenamide] | 60 |  | IC50 [4]: 189 nM

From patent EP0974573A1, “PHENYLPROPENONE COMPOUNDS AND MEDICINES CONTAINING THE SAME” (Kabushiki Kaisha Yakult Honsha, priority 1997, dated 1998)
